Measurements taken from DBAASP.
Converted amounts (≈) assume the structure as drawn.

Assays:
Assay in all cases: ≥ marks a high value that may be exact or a test limit, other limits are often not marked, values filed in µg/mL are converted to µM
Bacillus subtilis = tested on: Bacillus subtilis
[1] = tested on: Enterococcus faecalis ATCC 29212
Escherichia coli = tested on: Escherichia coli
[2] = tested on: Klebsiella pneumoniae ATCC 13883
[3] = tested on: Pseudomonas aeruginosa ATCC 27853
[4] = tested on: Salmonella enterica subsp. enterica serovar Typhimurium ATCC 14028
[5] = tested on: Staphylococcus aureus ATCC 25923
[6] = tested on: Staphylococcus aureus ATCC BAA-44
[7] = tested on: Staphylococcus epidermidis ATCC 51625
[8] = tested on: Streptococcus pyogenes ATCC 19615
[9] = tested on: Escherichia coli ATCC 25922
[10] = tested on: Listeria monocytogenes EGD
Staphylococcus aureus = tested on: Staphylococcus aureus
Streptococcus sanguinis = tested on: Streptococcus sanguinis
[11] = tested on: Candida albicans ATCC 2002
Escherichia coli ML-35p = tested on: Escherichia coli ML-35p

Row | Compound | MIC (Bacillus subtilis) | MIC [3] | MIC [5] | MIC [10] | MIC (Staphylococcus aureus) | MIC (Streptococcus sanguinis) | further results
1 | CC(C)C[C@H](NC(=O)[C@H](CO)NC(=O)[C@H](CCCN=C(N)N)NC(=O)[C@H](CCCCN)NC(=O)[C@@H](NC(=O)[C@@H](NC(=O)CNC(=O)[C@H](CCCN=C(N)N)NC(=O)[C@H](Cc1cnc[nH]1)NC(=O)[C@H](Cc1c[nH]c2ccccc12)NC(=O)[C@H](Cc1ccccc1)NC(=O)[C@H](Cc1cnc[nH]1)NC(=O)[C@H](Cc1ccc(O)cc1)NC(=O)[C@@H](N)Cc1ccc(O)cc1)C(C)C)[C@@H](C)O)C(=O)N[C@@H](CO)C(=O)N1CCC[C@H]1C(=O)N[C@@H](Cc1cnc[nH]1)C(=O)N[C@@H](CCCN=C(N)N)C(=O)N1CCC[C@H]1C(=O)N[C@@H](CCCN=C(N)N)C(=O)N[C@@H](Cc1cnc[nH]1)C(=O)N[C@@H](CO)C(=O)N[C@@H](CCCN=C(N)N)C(=O)O [YYHFWHRGVTKRSLSPHRPRHSR] | 4 µM (≈ 11.8 µg/mL) | 4 µM (≈ 11.8 µg/mL) | 4 µM (≈ 11.8 µg/mL) |  |  |  | MIC [1]: 4 µM (≈ 11.8 µg/mL); MIC (Escherichia coli): 4 µM (≈ 11.8 µg/mL); MIC [2]: 2 µM (≈ 5.92 µg/mL); MIC [4]: 4 µM (≈ 11.8 µg/mL); MIC [6]: 6 µM (≈ 17.8 µg/mL); MIC [7]: 6 µM (≈ 17.8 µg/mL); MIC [8]: 6 µM (≈ 17.8 µg/mL)
2 | CC(C)C[C@H](NC(=O)[C@H](CC(C)C)NC(=O)[C@H](CCC(N)=O)NC(=O)[C@H](CCCCN)NC(=O)[C@H](CC(C)C)NC(=O)[C@H](CCCCN)NC(=O)[C@H](CCCCN)NC(=O)[C@@H](N)CC(C)C)C(=O)NCC(=O)N[C@@H](CCCCN)C(=O)N[C@@H](CC(C)C)C(=O)N[C@@H](CO)C(=O)N[C@@H](CCC(=O)O)C(=O)N[C@@H](Cc1ccccc1)C(=O)N[C@@H](C)C(=O)N[C@@H](C)C(=O)N[C@@H](C)C(=O)N[C@@H](Cc1ccccc1)C(=O)N[C@H](C(=O)N[C@@H](C)C(N)=O)C(C)C [LKKLKQLLGKLSEFAAAFVA] |  | 16 µM (≈ 34.8 µg/mL) | 32 µM (≈ 69.6 µg/mL) | 8 µM (≈ 17.4 µg/mL) |  |  | MIC [9]: 32 µM (≈ 69.6 µg/mL)
3 | CC(C)C[C@H](N)C(=O)N[C@@H](Cc1ccccc1)C(=O)N[C@@H](Cc1ccccc1)C(=O)N[C@@H](Cc1ccccc1)C(=O)N[C@@H](Cc1ccccc1)C(=O)N[C@@H](Cc1ccccc1)C(N)=O [LFFFFF] |  |  |  |  | 29.4 µM (≈ 25.5 µg/mL) | ≥ 32.6 µM | 
4 | NC(=O)[C@H](Cc1ccccc1)NC(=O)[C@H](Cc1ccccc1)NC(=O)[C@H](Cc1ccccc1)NC(=O)[C@H](Cc1ccccc1)NC(=O)[C@H](Cc1ccccc1)NC(=O)[C@H](Cc1ccccc1)NC(=O)[C@@H](N)Cc1ccccc1 [FFFFFFF] |  |  |  |  | 3.3 µM (≈ 3.46 µg/mL) | 3.3 µM (≈ 3.46 µg/mL) | 
5 | CC(C)C[C@H](NC(=O)[C@H](C)NC(=O)[C@@H](NC(=O)[C@H](C)NC(=O)[C@H](CC(C)C)NC(=O)[C@H](CCCCN)NC(=O)[C@H](Cc1ccccc1)NC(=O)[C@H](CCCCN)NC(=O)[C@H](C)NC(=O)[C@@H](N)CO)C(C)C)C(=O)NCC(=O)N[C@@H](CCC(N)=O)C(=O)N[C@@H](Cc1ccccc1)C(=O)N[C@@H](CCCCN)C(=O)N[C@@H](CCC(=O)O)C(=O)N[C@@H](CCCCN)C(=O)N[C@@H](CC(C)C)C(=O)N[C@@H](CC(C)C)C(=O)N[C@@H](CC(C)C)C(=O)N[C@@H](C)C(N)=O [SAKFKLAVALGQFKEKLLLA] |  |  |  | ≥ 128 µM |  |  | 
6 | CC[C@H](C)[C@H](NC(=O)[C@H](C)NC(=O)[C@@H](NC(=O)[C@@H](NC(=O)[C@H](CCCCN)NC(=O)[C@@H](NC(=O)[C@H](CCCCN)NC(=O)[C@H](CC(=O)O)NC(=O)[C@H](CCCN=C(N)N)NC(=O)[C@@H](NC(=O)[C@@H](N)CO)[C@@H](C)CC)[C@@H](C)CC)[C@@H](C)O)[C@@H](C)CC)C(=O)N[C@@H](CC(=O)O)C(=O)N[C@@H](CC(C)C)C(=O)N[C@@H](C)C(=O)N[C@@H](CCCCN)C(=O)N[C@@H](CO)C(=O)N[C@@H](C)C(=O)NCC(=O)N[C@H](C(=O)NCC(=O)N[C@H](C(=O)N[C@@H](CC(C)C)C(=O)N[C@@H](CCCCN)C(=O)N[C@H](C(=O)N[C@@H](CC(C)C)C(=O)N[C@H](C(=O)N[C@H]1CSSC[C@@H](C(=O)O)NC(=O)[C@H](CO)NC(=O)[C@H](CCCCN)NC(=O)[C@H](CC(=O)O)NC(=O)[C@H](CC(C)C)NC(=O)[C@H](CCCCN)NC1=O)[C@@H](C)CC)[C@@H](C)O)C(C)C)[C@@H](C)O [SIRDKIKTIAIDLAKSAGTGVLKTLICKLDKSC] | 2.68 µM (≈ 9.37 µg/mL) | > 28.5 µM | 1.34 µM (≈ 4.69 µg/mL) |  |  |  | MIC [11]: 1.61 µM (≈ 5.63 µg/mL); MIC (Escherichia coli ML-35p): 7.13 µM (≈ 25 µg/mL)
